Measured values taken from patent EP1561465A2, “Methods of use of fluoroquinolone compounds against bacteria” (LG Life Sciences, Ltd., priority 1999, dated 2001).
In brackets after ≈: the same amount, converted by molar mass. Read-outs that look alike come from different tables or passages of the source.

Key:
Assay type in all cases: cell-based
[1] = tested on: Salmonella spp.; assay: MIC by agar dilution (NCCLS M7-A4), 288 enteropathogenic isolates, eight quinolones; conditions: for MIC: ciprofloxacin MIC ≥[…], read-out: MIC
[2] = tested on: Aeromonas spp.; assay: as above; conditions: Aeromonas spp. (n = 16)
[3] = tested on: Streptococcus pneumoniae; assay: MIC by agar dilution (NCCLS), 411 isolates Buenos Aires 1998-99; conditions: for MIC / MIC90: Streptococcus pneumoniae; for MIC90: read-out: MIC90
[4] = tested on: Enterococcus faecalis; assay: as above; conditions: Enterococcus faecalis (n = 48)
[5] = tested on: Streptococcus pneumoniae; assay: MIC by NCCLS reference broth microdilution, 450 respiratory tract pathogens; conditions: for MIC / MIC50 / MIC90: Streptococcus pneumoniae
[6] = tested on: Haemophilus influenzae; assay: MIC by broth microdilution (NCCLS), dried MicroScan panels, clinical isolates 1998-1999; conditions: for MIC90: Haemophilus influenzae
[7] = tested on: Haemophilus influenzae; assay: MIC by two-fold serial agar dilution, Sensitivity Disk agar-N (Kitasato isolates); conditions: Haemophilus influenzae (24)
[8] = tested on: Staphylococcus aureus; assay: microbe, parasite or virus in culture
[9] = tested on: Staphylococcus aureus; assay: MIC by NCCLS broth microdilution, 1100 Japanese clinical isolates 1997-1998; conditions: for MIC50 / MIC90 / MIC: Staphylococcus aureus; for MIC: Staphylococcus aureus quinolone resistant
[10] = tested on: Enterococcus gallinarum; assay: as above
[11] = tested on: Escherichia coli; assay: as above; conditions: for MIC50 / MIC90: Escherichia coli
[12] = tested on: Proteus mirabilis; assay: as above
[13] = MIC by agar dilution, Brucella HK agar, 491 anaerobic clinical isolates
[14] = tested on: Pseudomonas aeruginosa; assay: MIC by agar dilution (NCCLS), 322 nosocomial Gram negative isolates, Athens 1998; conditions: n = 57 isolates
[15] = tested on: Streptococcus pneumoniae; assay: MIC by E-test (broth microdilution for gemifloxacin), 107 pneumococcal carrier isolates, Athens 1998; conditions: E-test; for MIC Range: in µg/mL (unit assumed); for MIC50 / MIC90: Streptococcus pneumoniae; for MIC50: read-out: MIC50; for MIC90: read-out: MIC90
Protocol: Susceptibility testing was performed by agar dilution or epsilometer method (E-test), as recommended by the NCCLS. […] The susceptibility profiles of the strains were assessed using the Epsilometer method (E-test). The isolates were subdivided into two groups according to their penicillin susceptibility patterns (penicillin-susceptible and penicillin-intermediate.

[16] = tested on: Staphylococcus aureus; assay: MIC by agar macrodilution (NCCLS), 373 Gram positive isolates, Athens 1998; conditions: Methicillin-susceptible Staphylococcus aureus (n = 85)
[17] = tested on: Salmonella spp.; assay: MIC by agar dilution (NCCLS M7-A4), 288 enteropathogenic isolates, gemifloxacin and 15 other antimicrobials; conditions: read-out: MIC
[18] = Streptococcus pneumoniae (n = 90)
[19] = Streptococcus pneumoniae (n = 100)
[20] = erythromycin resistant M phenotype (n = 16)
[21] = penicillin intermediate (n = 16)
[22] = penicillin susceptible (n = 20)
[23] = Haemophilus influenzae (300 isolates)
[24] = Staphylococcus aureus oxacillin resistant (n=57)
[25] = Staphylococcus aureus oxacillin susceptible (n=41)
[26] = Escherichia coli ciprofloxacin susceptible (n=37)
[27] = Penicillin-intermediate S. pneumoniae (n = 24)
[28] = Penicillin-susceptible S. pneumoniae (n = 107)

What does the source list for CO/N=C1\CN(c2nc3c(cc2F)c(=O)c(C(=O)O)cn3C2CC2)CC1CN (racemic) [Gemifloxacin, (R,S)-7-(3-aminomethyl-4-methoxyiminopyrrolidin-1-yl)-1-cyclopropyl-6-fluoro-4-oxo-1,4-dihydro-1,8-naphthyridine-3-carboxylic acid]?
MIC ([1]; S. hadar (n = 2)): 0.25 µg/mL (≈ 0.642 µM); MIC ([1]; S. newport (n = 1)): 0.25 µg/mL (≈ 0.642 µM); MIC ([1]; S. virchow (n = 2)): 0.12 µg/mL (≈ 0.308 µM); % Susceptible ([1]; Salmonella spp. (n = 106)): 100%; MIC50 ([1]; Salmonella spp. (n = 106)): 0.03 µg/mL (≈ 0.077 µM); MIC90 ([1]; Salmonella spp. (n = 106)): 0.12 µg/mL (≈ 0.308 µM); MIC Range ([1]; Salmonella spp. (n = 106)): ≤0.015 to 0.25 µg/mL; MIC ([1]; Salmonella, S. tshiongwe (n = 1)): 0.25 µg/mL (≈ 0.642 µM); MICs lower than those of the other fluoroquinolones studied ([1]; six Salmonella spp. with ciprofloxacin MICs ≥[…]): 1-4 dilutions; % Susceptible [2]: 100%; MIC50 [2]: ≤ 0.015 µg/mL; MIC90 [2]: 0.03 µg/mL (≈ 0.077 µM); MIC Range [2]: ≤0.015 to 0.12 µg/mL; MIC [3]: 0.125 µg/mL (≈ 0.321 µM); MIC Range [3, 18]: ≤0.004 to 0.125 µg/mL; MIC ([3]; Ciprofloxacin-resistant S. pneumoniae, Strain 1, read-out: MIC): 0.03 µg/mL (≈ 0.077 µM); MIC ([3]; Ciprofloxacin-resistant S. pneumoniae, Strain 2, read-out: MIC): 0.06 µg/mL (≈ 0.154 µM); MIC ([3]; Ciprofloxacin-resistant S. pneumoniae, Strain 4, read-out: MIC): 0.06 µg/mL (≈ 0.154 µM); MIC90 ([3]; S. pneumoniae, Penicillin intermediate (n = 17)): 0.03 µg/mL (≈ 0.077 µM); MIC90 ([3]; S. pneumoniae, Penicillin resistant (n = 4)): 0.03 µg/mL (≈ 0.077 µM); MIC90 ([3]; S. pneumoniae, Penicillin susceptible (n = 69)): 0.03 µg/mL (≈ 0.077 µM); MIC90 [3, 18]: 0.03 µg/mL (≈ 0.077 µM); MIC90 [4]: 2 µg/mL (≈ 5.14 µM); MIC Range [4]: 0.008 to 8 µg/mL; times more potent than all comparator agents ([5]; S. pneumoniae): 4-64 times; MIC [5, 19]: 0.0075 to 0.03 µg/mL (≈ 0.0193 to 0.077 µM); MIC50 [5, 19]: 0.015 µg/mL (≈ 0.0385 µM); MIC90 [5, 19]: 0.03 µg/mL (≈ 0.077 µM); MIC [5, 20]: 0.015 to 0.05 µg/mL (≈ 0.0385 to 0.128 µM); MIC50 [5, 20]: 0.015 µg/mL (≈ 0.0385 µM); MIC90 [5, 20]: 0.03 µg/mL (≈ 0.077 µM); MIC ([5]; erythromycin resistant MLSB phenotype (n = 16)): 0.0075 to 0.03 µg/mL (≈ 0.0193 to 0.077 µM); MIC ([5]; multi-drug resistant (n = 16)): 0.0075 to 0.03 µg/mL (≈ 0.0193 to 0.077 µM); MIC50 ([5]; multi-drug resistant (n = 16)): 0.015 µg/mL (≈ 0.0385 µM); MIC90 ([5]; multi-drug resistant (n = 16)): 0.03 µg/mL (≈ 0.077 µM); MIC [5, 21]: 0.0075 to 0.03 µg/mL (≈ 0.0193 to 0.077 µM); MIC50 [5, 21]: 0.015 µg/mL (≈ 0.0385 µM); MIC90 [5, 21]: 0.015 µg/mL (≈ 0.0385 µM); MIC ([5]; penicillin resistant (n = 18)): 0.0075 to 0.06 µg/mL (≈ 0.0193 to 0.154 µM); MIC50 ([5]; penicillin resistant (n = 18)): ≤ 0.0075 µg/mL; MIC90 ([5]; penicillin resistant (n = 18)): 0.06 µg/mL (≈ 0.154 µM); MIC [5, 22]: 0.0075 to 0.03 µg/mL (≈ 0.0193 to 0.077 µM); MIC50 [5, 22]: 0.015 µg/mL (≈ 0.0385 µM); MIC90 [5, 22]: 0.03 µg/mL (≈ 0.077 µM); activity superior to that of levofloxacin ([6]; H. influenzae): four-fold; MIC50 [6, 23]: 0.004 µg/mL (≈ 0.0103 µM); MIC Range [6, 23]: ≤0.0015 to 0.12 µg/mL; MIC90 [6, 23]: 0.008 µg/mL (≈ 0.0205 µM); MIC90 ([6]; β-lactamase negative (234)): 0.008 µg/mL (≈ 0.0205 µM); MIC90 ([6]; β-lactamase positive (66)): 0.03 µg/mL (≈ 0.077 µM); MIC50 [7]: 0.016 µg/mL (≈ 0.0411 µM); MIC90 [7]: 0.016 µg/mL (≈ 0.0411 µM); MIC Range [7]: 0.008 to 0.031 µg/mL; MIC Range ([8]; Methicillin-resistant (38)): 0.031 to 32 µg/mL; MIC Range ([8]; Methicillin-susceptible (9)): 0.031 to 0.25 µg/mL; increase of MIC ([8]; S. aureus KU2240 with a single mutation in NorA, DNA gyrase or topoisomerase IV): 2-4 fold; MIC90 ([8]; Staphylococcus aureus, Methicillin-susceptible (9), read-out: MIC90): 0.25 µg/mL (≈ 0.642 µM); MIC ([8]; Staphylococcus aureus, S. aureus KU2240, mutant type Wild (wild strain)): 0.031 µg/mL (≈ 0.0796 µM); MIC ([8]; Staphylococcus aureus, S. aureus KU2240, read-out: MIC): 0.031 µg/mL (≈ 0.0796 µM); MIC ([8]; Staphylococcus aureus, S. aureus KU2241, mutant type NorA (efflux-mediated quinolone resistant)): 0.063 µg/mL (≈ 0.162 µM); MIC ([8]; Staphylococcus aureus, S. aureus KU2242, mutant type T (DNA topoisomerase IV)): 0.063 µg/mL (≈ 0.162 µM); MIC ([8]; Staphylococcus aureus, S. aureus KU2244, mutant type G (DNA gyrase)): 0.125 µg/mL (≈ 0.321 µM); MIC ([8]; Staphylococcus aureus, S. aureus KU2246, mutant type T (DNA topoisomerase IV)): 0.125 µg/mL (≈ 0.321 µM); MIC Range [9, 24]: ≤0.008 to 64 µg/mL; MIC Range [9, 25]: ≤0.008 to 1 µg/mL; MIC50 [9, 24]: 1 µg/mL (≈ 2.57 µM); MIC90 [9, 24]: 32 µg/mL (≈ 82.2 µM); MIC50 [9, 25]: 0.063 µg/mL (≈ 0.162 µM); MIC90 [9, 25]: 0.063 µg/mL (≈ 0.162 µM); MIC ([9]; strain TMS1* (spontaneous mutant resistant to ciprofloxacin)): 0.032 µg/mL (≈ 0.0822 µM); MIC ([9]; strain TMS2* (spontaneous mutant resistant to ciprofloxacin)): 1 µg/mL (≈ 2.57 µM); MIC ([9]; strain TMS3, read-out: MIC): 32 µg/mL (≈ 82.2 µM); MIC ([9]; strain TMS4, read-out: MIC): 4 µg/mL (≈ 10.3 µM); MIC ([9]; strain TMS5, read-out: MIC): 2 µg/mL (≈ 5.14 µM); MIC ([9]; strain TMS6, read-out: MIC): 0.25 µg/mL (≈ 0.642 µM); MIC ([10]; Enterococcus gallinarum (vanC1), strain TMS3): 0.125 µg/mL (≈ 0.321 µM); MIC ([10]; Enterococcus gallinarum, GALLINARUM): 0.125 µg/mL (≈ 0.321 µM); MIC ([10]; Enterococcus gallinarum, GALLINARUM, Enterococcus gallinarum (vanC1), strain TMS1, read-out: MIC): 0.032 µg/mL (≈ 0.0822 µM); MIC ([10]; Enterococcus gallinarum, GALLINARUM, Enterococcus gallinarum (vanC1), strain TMS4, read-out: MIC): 0.032 µg/mL (≈ 0.0822 µM); MIC Range [11, 26]: ≤0.008 to 0.125 µg/mL; MIC50 ([11]; Escherichia coli ciprofloxacin resistant (n=5)): 32 µg/mL (≈ 82.2 µM); MIC90 ([11]; Escherichia coli ciprofloxacin resistant (n=5), values marked *: MIC80 value): 32 µg/mL (≈ 82.2 µM); MIC50 [11, 26]: ≤ 0.008 µg/mL; MIC90 [11, 26]: 0.032 µg/mL (≈ 0.0822 µM); MIC50 ([12]; Proteus mirabilis): 0.125 µg/mL (≈ 0.321 µM); MIC Range ([12]; Proteus mirabilis (n=30)): 0.063 to 16 µg/mL; MIC90 ([12]; Proteus mirabilis (n=30), read-out: MIC90): 0.25 µg/mL (≈ 0.642 µM); MIC90 ([13]; clinical isolates of Bacteroides spp., Prevotella bivia and other Prevotella spp.): 8 to 32 µg/mL (≈ 20.5 to 82.2 µM); MIC ([13]; read-out: MIC90s): 0.125 to 0.5 µg/mL (≈ 0.321 to 1.28 µM); MIC50 [14]: 1 µg/mL (≈ 2.57 µM); MIC90 [14]: > 64 µg/mL; MIC Range [15, 27]: 0.004-0.125; MIC Range [15, 28]: 0.002-0.19; MIC50 [15, 27]: 0.064 µg/mL (≈ 0.164 µM); MIC90 [15, 27]: 0.23 µg/mL (≈ 0.591 µM); MIC50 [15, 28]: 0.032 µg/mL (≈ 0.0822 µM); MIC90 [15, 28]: 0.064 µg/mL (≈ 0.164 µM); MIC Range [16]: ≤0.03 to 4 µg/mL; MIC50 ([16]; read-out: MIC50): 0.06 µg/mL (≈ 0.154 µM); MIC90 ([16]; read-out: MIC90): 0.125 µg/mL (≈ 0.321 µM); MIC ([17]; S. hadar(2), isolates with MICs for ciprofloxacin ≥[…]): 0.25 µg/mL (≈ 0.642 µM); MIC ([17]; S. newport(1), isolate with MIC for ciprofloxacin ≥[…]): 0.25 µg/mL (≈ 0.642 µM); MIC ([17]; S. virchow(2), isolates with MICs for ciprofloxacin ≥[…]): 0.12 µg/mL (≈ 0.308 µM); MIC ([17]; Salmonella, S. tshiongwe(1), isolate with MIC for ciprofloxacin ≥[…]): 0.25 µg/mL (≈ 0.642 µM)
